One series concerns MDSCs. Briefly: Inhibition of MDSC chemotaxis (Transwell, Hepa1-6 tumor-conditioned medium). The format is cell-based, mice. The following applies: 12 h treatment, 24 h Transwell. Here is the method: Hepa1-6 mouse hepatocellular carcinoma cells were uniformly seeded into 6-well plates. After cells reached confluence, supernatant was aspirated, and 1-1.5 mL fresh medium was added to each well. Following 24 h culture, supernatant was collected, centrifuged at 1600 rpm for 5 min, aspirated, and filtered through a 0.22 µm membrane to obtain tumor-conditioned medium for subsequent use. Euthanize mice by cervical dislocation and immerse in 75% ethanol solution for 5 min. Under sterile conditions, remove the tibia, cut both ends of the bone, and aspirate the bone marrow into a 1 mL syringe. Repeat flushing into a 15 mL centrifuge tube. Centrifuge at 1600 rpm for 5 min to collect bone marrow cells. Wash twice with 1×PBS. Resuspend cells in complete RPMI 1640 medium containing cytokines GM-CSF (10 ng/mL) and IL-4 (10 ng/mL) to stimulate differentiation into MDSCs. Count cells, adjust density to 1×10^6 cells/mL, and uniformly seed into 24-well plates at 300 µL per well. […] Centrifuge at 1600 rpm for 5 min, remove supernatant, resuspend cells in 300 µL fresh medium, and place into Transwell chambers. Add 600 µL normal medium (control group) or tumor-conditioned medium (model group) to the lower chamber. Co-culture for 24 h.

Another series can be described thus: physchem. The following applies: water, 37 °C, thermodynamic from solid.
For the next series, the system named is CCR2 mRNA. Briefly: CCR2 mRNA level in MDSCs (PCR). The format is cell-based, mice. The following applies: CCR2 mRNA levels in MDSCs, 2 h. Here is the method: Mice were euthanized by cervical dislocation and immersed in 75% ethanol solution for 5 min. Under sterile conditions, the tibia was removed, both ends of the bone were cut, and bone marrow was repeatedly flushed into a 15 mL centrifuge tube using a 1 mL syringe filled with culture medium. Centrifuge at 1600 rpm for 5 min to collect bone marrow cells. Wash twice with 1×PBS, then resuspend in RPMI 1640 complete medium containing GM-CSF (10 ng/mL) + IL-4 (10 ng/mL) and transfer to a cell culture dish to stimulate differentiation of bone marrow cells into MDSCs. Count cells and adjust density to 1 × 10^6 cells/mL in complete medium. Seed cells uniformly into 6-well plates at 2 mL per well. […] After incubation, collect cells into centrifuge tubes, centrifuge at 1600 rpm for 5 min, wash once with 1×PBS, and add 500 µL RNA extraction reagent to each tube. After centrifugation to obtain the pellet, add 20 µL DEPC-treated water to each tube to dissolve the pellet. Determine RNA concentration and reverse transcribe to cDNA. Add the cDNA, primers, and reverse transcriptase to a 96-well plate. Centrifuge at 4000 rpm for 5 min, then place in a PCR instrument for detection.

Series [1] relates to fibrosis-related factors (Acta2, Col1a1, Tgfb1). Briefly: CCl4 acute liver injury model in mice: Q-PCR of fibrosis-related factors in liver. The format is in vivo, C57BL/6 mice. The following applies: liver mRNA, 200 mg/kg. The procedure:
They were acclimated for 7 days before use in experiments. • Experimental Methods: Establishment of Acute Liver Injury Model in Mice and Group-Specific Drug Administration • Mice were randomly assigned to groups. One group was arbitrarily designated as the normal group, while the remaining groups served as model group, Compound 1 group, Hydrochloride 20 group, Fumarate 21 group, and Silibinin group, with 6 mice per group. Except for the normal group receiving 10 mL olive oil/kg via injection, all other mice received 0.5 mL CCl4 + 9.5 mL olive oil/kg body weight via intraperitoneal injection, maintaining a CCl4 to olive oil ratio of 1:19. Starting from day 1 of modeling, Compound 1, Hydrochloride 20, and Fumarate 21 were administered orally for 3 consecutive days. […] The blood was allowed to stand at room temperature for 2 hours, then centrifuged at 3000 rpm for 20 minutes. Serum was aspirated, aliquoted, and stored at -70 °C for future use. After blood collection, euthanize mice by cervical dislocation. Perform laparotomy to remove the liver. Rinse twice with pre-chilled PBS. Excise the left hepatic lobe tissue. […] Store remaining tissue at -70 °C for future use. • Serum AST and ALT Assay: Use 10 µL of each sample for testing. Determine mouse serum AST and ALT levels according to the operating manual. Measure absorbance at 510 nm using an enzyme-linked immunosorbent assay (ELISA) reader. Calculate sample concentration (U/L) based on the standard curve.
Q-PCR Analysis: Tissue total RNA extraction, cDNA synthesis, and PCR amplification methods are identical to Example 4. Additional primer information is as follows:
Data Statistics: All data are expressed as means ± standard error of the mean (S.E.M.). Differences were analyzed for significance using analysis of variance (ANOVA). For groups showing significant differences in ANOVA, one-way ANOVA followed by Dunnett's test was performed to compare intergroup differences.

Series [2] relates to CCl4-induced liver injury. Briefly: CCl4 acute liver injury model in mice: serum ALT and AST. The format is in vivo, C57BL/6 mice. The conditions noted are these: 200 mg/kg (method: U/L). An excerpt: The drug of the present invention, prepared according to Example 2; Silybin, Shanghai Yuanye Biotechnology Co., Ltd.; Olive oil, Beijing […] Olive Oil Development Center; Analytical grade carbon tetrachloride (CCl4), Shantou Xilong Chemical Factory; Sodium carboxymethyl cellulose (CMC-Na), Guangdong Shantou Xilong Chemical Factory; RNA Isolater Total RNA Extraction Reagent, […] RT Supermix for qPCR, Nanjing Vazyme Biotech Co., Ltd.; AceQ qPCR SYBR Green Master Mix, Shanghai Yeasen Biotechnology Co., Ltd.; Aspartate Transaminase (AST/GOT) Colorimetric Test Kit, Alanine Transaminase (ALT/GPT) Colorimetric Test Kit, Wuhan Elabscience Biotechnology Co., Ltd. • Experimental animals: […] SCXK(Su)2019-002. […] They were acclimated for 7 days before use in experiments. • Experimental Methods: Establishment of Acute Liver Injury Model in Mice and Group-Specific Drug Administration • Mice were randomly assigned to groups. […] One hour after the final drug administration, blood was collected from the retinal venous plexus. […] Serum was aspirated, aliquoted, and stored at -70 °C for future use. After blood collection, euthanize mice by cervical dislocation. Perform laparotomy to remove the liver. Rinse twice with pre-chilled PBS. Excise the left hepatic lobe tissue. […] Store remaining tissue at -70 °C for future use. • Serum AST and ALT Assay: Use 10 μL of each sample for testing. Determine mouse serum AST and ALT levels according to the operating manual. Measure absorbance at 510 nm using an enzyme-linked immunosorbent assay (ELISA) reader. Calculate sample concentration (U/L) based on the standard curve. Data Statistics: All data are expressed as means ± standard error of the mean (S.E.M.). Differences were analyzed for significance using analysis of variance (ANOVA). For groups showing significant differences in ANOVA, one-way ANOVA followed by Dunnett's test was performed to compare intergroup differences.

Series [3] concerns inflammatory factors (TNF, IL-6, IL-1). Briefly: Lupus nephritis MRL/lpr mice: Q-PCR of renal inflammatory factors. The format is in vivo. The following applies: kidney mRNA, oral 30 mg/kg, 8 weeks. Here is the method:
Production license number: SCXK(Su)2023-0009. […] They were acclimated for 7 days before use in experiments.
Oral administration was performed continuously for 8 weeks.
Allow blood to stand at room temperature for 2 hours, then centrifuge at 3000 rpm for 20 minutes. Aspirate the serum, aliquot it, and store at -70 °C for future use. After blood collection, euthanize mice by cervical dislocation. Open the abdominal cavity, remove kidneys, and dissect out perirenal fat and capsules. […] Store remaining tissues at -70 °C for future use.
Additional primer information is as follows: Table 19. Q-PCR Primer Information

For the next series, the system named is lupus nephritis. Briefly: Lupus nephritis MRL/lpr mice: urinary protein, Scr, BUN, urinary Kim-1 and β-MG. The conditions noted are these: oral 30 mg/kg, 8 weeks. The format is in vivo. On the set-up: Scr / BUN / Kim-1 / β-MG: unit not given here. The procedure: RT Supermix for qPCR, Nanjing Vazyme Biotech Co., Ltd.; Urea Colorimetric Test Kit, Creatinine Colorimetric Test Kit, Nanjing Jiancheng Biotechnology Co., Ltd.; Urinary Kim-1 and β-MG Content ELISA Kits, Abcam. • Experimental animals: MRL/MpJ and MRL/lpr mice, female, 10 weeks old, purchased from GemPharmatech LLC. Production license number: SCXK(Su)2023-0009. […] They were acclimated for 7 days before use in experiments. […] Oral administration was performed continuously for 8 weeks. […] Aspirate the serum, aliquot it, and store at -70 °C for future use. After blood collection, euthanize mice by cervical dislocation. Open the abdominal cavity, remove kidneys, and dissect out perirenal fat and capsules. […] Store remaining tissues at -70 °C for future use. Serum Creatinine (Scr) and Blood Urea Nitrogen (BUN) Assay: […] Samples were added sequentially strictly according to the kit instructions, incubated at 37 °C, and measured for absorbance values using an enzyme-linked immunosorbent assay (ELISA) reader. The concentration levels of each indicator were calculated based on the standard curve.

By solubility is commonly meant how much of the substance goes into solution per volume.

Values after ≈ are worked out from the molar mass of the structure shown.

Regarding `C=C1C(=O)O[C@H]2[C@H]1CCC(C)=C1CC[C@@](C)(OC(=O)N3CCCCC3)[C@@H]12` [compound 83], the “Suppression Rate (%)” value with MDSCs (1 µM) was 29.4%; with MDSCs (10 µM), 75.9%. In “physchem”, this compound yielded a solubility of 152 µg/mL (≈ 423 µM). Moreover, the “CCR2 mRNA suppression rate in MDSCs (%)” value with CCR2 mRNA (1 µM) turned out to be 17.0%; with CCR2 mRNA (10 µM), 70.0%.
Take `COc1cc(C2Oc3cc([C@H]4Oc5cc(O)cc(O)c5C(=O)[C@@H]4O)ccc3OC2CO)ccc1O` (stereo partly drawn) [Silybin, reference compound]: in series [1], the Acta2 was determined as 2.91±0.48, the Col1a1 came out at 1.84±0.17 and the Tgfb1 is given as 1.11±0.08. In series [2], this compound displayed an ALT of 121.58±15.45 and an AST of 301.45±38.44.
Turning to `CC(C)(O)c1coc(S(=O)(=O)NC(=O)Nc2c3c(cc4c2CCC4)CCC3)c1` [MCC950, reference compound], in series [3], the Il1 stood at 5.43±0.71, the Il6 turned out to be 9.52±0.84 and the Tnf came to 4.33±0.52. The “24-hour urine protein level” value with lupus nephritis stood at 0.89±0.11. Moreover, in the series on lupus nephritis (serum), the BUN came to 12.08±2.01 and the Scr amounted to 22.18±3.41. In the series on lupus nephritis (urine), the Kim-1 is recorded as 0.53±0.06 and the β-MG was 15.41±0.39.

Source of the values: patent publication EP4813381A1, “PHARMACEUTICAL USE OF GUAIANE SESQUITERPENE DERIVATIVE” (Nanjing University Of Chinese Medicine, priority 2023, dated 2025).
